Source: patent publication US20070167412A1, “HALOCOMBSTATINS AND METHODS OF SYNTHESIS THEREOF” (ARIZONA BOARD OF REGENTS, priority 2003, published 2007)

What was measured:
Breast MCF-7 = experiment: human cancer cell growth inhibition, sulforhodamine B assay; type: cell-based; details: Table I; 48 hours
Description: (§1) Inhibition of human cancer cell growth was assessed using the National Cancer Institute's standard sulforhodamine B assay. After 48 hours, the plates were fixed with trichloracetic acid, stained with sulforhodamine B and read with an automated microplate reader. […] Inhibition of the mouse leukemia P388 cells was assessed in a 10% horse serum/Fisher medium soution for 24 hours, followed by a 48 hour incubation with serial dilutions of the compounds. Cell growth inhibition (ED50) was then calculated using a Z1 Becleman/Coulter particle counter.

CNS SF268 = experiment: as above; type: cell-based; details: Table I; 48 hours
Description: as §1

Colon KM20L2 = experiment: as above; type: cell-based; details: Table I; 48 hours
Description: as §1

Lung-NSC NCI-H460 = experiment: as above; type: cell-based; details: Table I; 48 hours
Description: as §1

Pancreas BXPC-3 = experiment: as above; type: cell-based; details: Table I; 48 hours
Description: as §1

Prostate DU-145 = experiment: as above; type: cell-based; details: Table I; 48 hours
Description: as §1

Candida albicans = experiment: reference broth microdilution susceptibility assay; type: cell-based; details: for Range of minimum inhibitory concentration, Candida albicans: Table III
Description: (§2) The halocombstatins of the present invention appear to also have antimicrobial properties. More specifically, they appear to have antifungal and/or antibacterial properties. Antimicrobial evaluation of the halocombstatins involved susceptibility testing performed by the reference broth microdilution assay. The antimicrobial activities of the halocombstatins were very similar, targeting Gram-positive bacteria and the pathogenic fungi Cryptococcus neoformans, and results are shown in Table III.
(§3) (See Pettit, G. R., et al., Antineoplastic Agents 463. Synthesis of Combretastatin A-3 Diphosphates, Anticancer Drug Design 2000, 15, 397-404.) To determine the antimicrobial activity of the present compounds, susceptibility testing was performed by the reference broth microdilution assay. (See National Committee for Clinical Laboratory Standards. Methods for Dilution Antimicrobial Susceptibility Tests for Bacteria that Grow Aerobically. Approved Standard M7-A5. Wayne, P A: NCCLS, 2000. National Committee for Clinical Laboratory Standards. Reference Method for Broth Dilution Antifungal Susceptibility Testing of Yeasts. Aproved Standard M27-A. Wayne, P A: NCCLS, 1997.) The antimicrobial activities of the halocombretastatins of the present invention were very similar, targeting Gram-positive bacteria and Cryptococcus neoformans. This is illustrated in further detail in Table III. Thus, several of the novel compounds of the present invention appear to have potential as antimicrobial agents, such as antifingals and antibacterials.

Cryptococcus neoformans = experiment: reference broth microdilution susceptibility assay; type: cell-based; details: for Range of minimum inhibitory concentration, Cryptococcus neoformans: Table III
Description: as §2, §3

Enterobacter cloacae = experiment: reference broth microdilution susceptibility assay; type: cell-based; details: for Range of minimum inhibitory concentration, Enterobacter cloacae: Table III
Description: as §2, §3

Enterococcus faecalis = experiment: reference broth microdilution susceptibility assay; type: cell-based; details: for Range of minimum inhibitory concentration, Enterococcus faecalis: Table III
Description: as §2, §3

Escherichia coli = experiment: reference broth microdilution susceptibility assay; type: cell-based; details: for Range of minimum inhibitory concentration, Escherichia coli: Table III
Description: as §2, §3

Micrococcus luteus = experiment: reference broth microdilution susceptibility assay; type: cell-based; details: for Range of minimum inhibitory concentration, Micrococcus luteus: Table III
Description: as §2, §3

Neisseria gonorrhoeae = experiment: reference broth microdilution susceptibility assay; type: cell-based; details: for Range of minimum inhibitory concentration, Neisseria gonorrhoeae: Table III
Description: as §2, §3

Staphylococcus aureus = experiment: reference broth microdilution susceptibility assay; type: cell-based; details: for Range of minimum inhibitory concentration, Staphylococcus aureus: Table III
Description: as §2, §3

[1] = test system: Stenotrophomonas maltophilia; experiment: reference broth microdilution susceptibility assay; type: cell-based; details: for Range of minimum inhibitory concentration, Stenotrophomonas maltophilia: Table III
Description: as §2, §3

Streptococcus pneumoniae = experiment: reference broth microdilution susceptibility assay; type: cell-based; details: for Range of minimum inhibitory concentration, Streptococcus pneumoniae: Table III
Description: as §2, §3

[2] = test system: human umbilical vein endothelial cells (HUVEC); experiment: HUVEC growth inhibition, sulforhodamine B assay; type: cell-based; details: for Relative % Growth: HUVEC; for Human Umbilical Vein Endothelial Cell (HUVEC) Inhibition Values (GI50): Table V
Description: (§4) In vitro Matrigel antiangiogenesis assays were implemented according to the Developmental Therapeutics Program NCI/NIH protocols known to one of skill in the art. Matrigel, a basement membrane matrix, was obtained from BD Biosciences. Growth inhibition and cord formation assays were Conducted using human umbilical vein endothelial cells obtained from GlycoTeCh. HUVEC cells were grown in EGM-2 medium.
The standard sulforhodamine B assay (see Cancer Cell Line Procedures above) was used to evaluate results using HUVEC cells. IC50 or ED50 (drug concentration causing 50% inhibition) was calculated from the plotted data.

[3] = test system: human umbilical vein endothelial cells (HUVEC); experiment: Matrigel cord formation assay; type: cell-based; parameters: key to Lengths of Cords: −: No Cords; +: Small; ++: ˜50% of Control; +++: Same as Control; details: 24 hours, compared to untreated controls
Description: as §4
(§5) An aliquot of sixty microliters was placed in each well of an ice-cold 96-well plate. The plates were then left for 15 minutes at room temperature, then incubated for 30 minutes at 37° C. to permit the matrigel to polymerize. Meanwhile, HUVEC cells were harvested and diluted to a concentration of 2×10^5 cells/ml. A solution of 100 μL containing the compounds to be tested was added next. After 24 hours incubation, pictures were taken for each concentration using an inverted Nikon Diaphot microscope and D100 digital camera. Drug effect was assessed, compared to untreated controls, by measuring the length of cords formed and number ofjunctions.

[4] = test system: human umbilical vein endothelial cells (HUVEC); experiment: Matrigel cord formation assay; type: cell-based; parameters: key: −: No Junctions; +: Few; ++: ˜50% of Control; +++: Same as Control; details: 24 hours, compared to untreated controls
Description: as §4, §5

Row | Molecule | Human cancer cell line inhibition (GI50) Breast adn MCF-7 (Breast MCF-7) | Human cancer cell line inhibition (GI50) CNS SF268 (CNS SF268) | Human cancer cell line inhibition (GI50) Colon KM20L2 (Colon KM20L2) | Human cancer cell line inhibition (GI50) Lung-NSC NCI-H460 (Lung-NSC NCI-H460) | Human cancer cell line inhibition (GI50) Pancreas-a BXPC-3 (Pancreas BXPC-3) | Human cancer cell line inhibition (GI50) Prostate DU-145 (Prostate DU-145) | Range of minimum inhibitory concentration, Candida albicans (Candida albicans) | Range of minimum inhibitory concentration, Cryptococcus neoformans (Cryptococcus neoformans) | Range of minimum inhibitory concentration, Enterobacter cloacae (Enterobacter cloacae) | Range of minimum inhibitory concentration, Enterococcus faecalis (Enterococcus faecalis) | Range of minimum inhibitory concentration, Escherichia coli (Escherichia coli) | Range of minimum inhibitory concentration, Micrococcus luteus (Micrococcus luteus) | Range of minimum inhibitory concentration, Neisseria gonorrhoeae (Neisseria gonorrhoeae) | Range of minimum inhibitory concentration, Staphylococcus aureus (Staphylococcus aureus) | Range of minimum inhibitory concentration, Stenotrophomonas maltophilia [1] | Range of minimum inhibitory concentration, Streptococcus pneumoniae (Streptococcus pneumoniae) | also measured
1 | COc1ccc(/C=C\c2cc(I)c(OC)c(OC)c2)cc1C(C)=O |  |  |  |  |  |  |  |  |  |  |  |  |  |  |  |  | melting point: 103 to 104 °C
2 | Sodium 3-iodo-4,4′,5-trimethoxy-z-stilbene 3′-O-phosphate [Compound 20a] | 0.012 µg/mL | 0.0052 µg/mL | 0.37 µg/mL | 0.0031 µg/mL | 0.47 µg/mL | 0.0078 µg/mL | * (no inhibition at 64 μg/ml) | * (no inhibition at 64 μg/ml) | * (no inhibition at 64 μg/ml) | * (no inhibition at 64 μg/ml) | * (no inhibition at 64 μg/ml) | * (no inhibition at 64 μg/ml) | 16 to 32 µg/mL | * (no inhibition at 64 μg/ml) | * (no inhibition at 64 μg/ml) | * (no inhibition at 64 μg/ml) | Relative % Growth ([2]; 0.0001 μg/ml): 104%; Relative % Growth ([2]; 0.001 μg/ml): 5%; Relative % Growth ([2]; 0.01 μg/ml): 14%; Relative % Growth ([2]; 0.1 μg/ml): 7%; Human Umbilical Vein Endothelial Cell (HUVEC) Inhibition Values (GI50) [2]: 0.00035 µg/mL; Lengths of Cords ([3]; 0.001 μg/ml): +; Lengths of Cords ([3]; 0.01 μg/ml): −; Lengths of Cords ([3]; 0.1 μg/ml): −; Number of junctions ([4]; 0.001 μg/ml): +; Number of junctions ([4]; 0.01 μg/ml): −; Number of junctions ([4]; 0.1 μg/ml): −
3 | Sodium 3-fluoro-4,4′,5-trimethoxy-Z-stilbene 3′-O-phosphate [Compound 18a] | 0.0044 µg/mL | 0.0051 µg/mL | 1.5 µg/mL | 0.0094 µg/mL | 0.59 µg/mL | 0.0036 µg/mL | * (no inhibition at 64 μg/ml) | * (no inhibition at 64 μg/ml) | * (no inhibition at 64 μg/ml) | * (no inhibition at 64 μg/ml) | * (no inhibition at 64 μg/ml) | * (no inhibition at 64 μg/ml) | 16 µg/mL | * (no inhibition at 64 μg/ml) | * (no inhibition at 64 μg/ml) | * (no inhibition at 64 μg/ml) | 
4 | 3-Brombo-4,4′,5-trimethoxy-3′-hydroxy-E-stilbene [Compound 13b] | 0.14 µg/mL | 0.18 µg/mL | 1.2 µg/mL | 0.15 µg/mL | 1.6 µg/mL | 0.13 µg/mL | * (no inhibition at 64 μg/ml) | * (no inhibition at 64 μg/ml) | * (no inhibition at 64 μg/ml) | * (no inhibition at 64 μg/ml) | * (no inhibition at 64 μg/ml) | * (no inhibition at 64 μg/ml) | * (no inhibition at 64 μg/ml) | * (no inhibition at 64 μg/ml) | * (no inhibition at 64 μg/ml) | * (no inhibition at 64 μg/ml) | 
5 | COc1ccc(/C=C\c2cc(I)c(OC)c(I)c2)cc1OP(=O)([O-])[O-].[Na+].[Na+] [Compound 0] |  |  |  |  |  |  |  |  |  |  |  |  |  |  |  |  | Range of MIC, Candida albicans (Candida albicans; Table VII, ATCC 90028): * (no inhibition at 64 μg/ml); Range of MIC, Cryptococcus neoformans (Cryptococcus neoformans; Table VII, ATCC 90112): * (no inhibition at 64 μg/ml); Range of MIC, Enterobacter cloacae (Enterobacter cloacae; Table VII, ATCC 13047): * (no inhibition at 64 μg/ml); Range of MIC, Enterococcus faecalis (Enterococcus faecalis; Table VII, ATCC 29212): * (no inhibition at 64 μg/ml); Range of MIC, Escherichia coli (Escherichia coli; Table VII, ATCC 25922): * (no inhibition at 64 μg/ml); Range of MIC, Micrococcus luteus (Micrococcus luteus; Table VII, Presque Isle 456): * (no inhibition at 64 μg/ml); Range of MIC, Neisseria gonorrhoeae (Neisseria gonorrhoeae; Table VII, ATCC 49226): 32 to 64 µg/mL; Range of MIC, Staphylococcus aureus (Staphylococcus aureus; Table VII, ATCC 29213): * (no inhibition at 64 μg/ml); Range of MIC, Stenotrophomonas maltophilia ([1]; Table VII, ATCC 13637): * (no inhibition at 64 μg/ml); Range of MIC, Streptococcus pneumoniae (Streptococcus pneumoniae; Table VII, ATCC 6303): * (no inhibition at 64 μg/ml)
6 | Sodium 3,5-diiodo-4,4′dimethoxy-z-stilbene 3′-O-phosphate [Compound T (Table Ia)] |  |  |  |  |  |  |  |  |  |  |  |  |  |  |  |  | Relative % Growth ([2]; 0.0001 μg/ml): >100%; Relative % Growth ([2]; 0.01 μg/ml): >100%; Relative % Growth ([2]; 0.1 μg/ml): −2%; Relative % Growth ([2]; 1 μg/ml): −7%; Human Umbilical Vein Endothelial Cell (HUVEC) Inhibition Values (GI50) [2]: 0.051 µg/mL; Lengths of Cords ([3]; 0.1 μg/ml): +; Lengths of Cords ([3]; 1 μg/ml): −; Number of junctions ([4]; 1 μg/ml): −
7 | 3-Fluoro-4,4′,5-trimethoy-3′-hydroxy-E-stilhene [Compound 11b] | 0.051 µg/mL | 0.35 µg/mL | 0.53 µg/mL | 0.18 µg/mL | 2.2 µg/mL | 0.18 µg/mL | * (no inhibition at 64 μg/ml) | 64 µg/mL | * (no inhibition at 64 μg/ml) | * (no inhibition at 64 μg/ml) | * (no inhibition at 64 μg/ml) | 16 to 32 µg/mL | 8 to 16 µg/mL | 32 to 64 µg/mL | * (no inhibition at 64 μg/ml) | 64 µg/mL | 
